We go through two molecules from PubChem BioAssay AID1259407 (Chemical Carcinogenesis Research Information System (CCRIS), 2018).

The data set concerns CCRIS mutagenicity, Ames/micronucleus/aberration tests. Nature of the data set: CCRIS mutagenicity studies.

The source made the active and inactive calls. How the calls were made is not given here.

Take `CCCCCCc1ccc(O)cc1O`: the mutagenic call runs as follows: (End Point: IN VITRO CHROMOSOMAL ABERRATIONS, Test System: CHO CELLS, Metabolic Activation: NONE) “inactive; negative”; (End Point: IN VITRO CHROMOSOMAL ABERRATIONS, Test System: CHO CELLS, Metabolic Activation: RAT, LIVER, S-9, AROCLOR 1254) “inactive; negative”; (Test System: AMES SALMONELLA TYPHIMURIUM, Strain/Indicator: TA98, Metabolic Activation: HAMSTER, LIVER, S-9, AROCLOR 1254, Method: PREINCUBATION) “inactive; negative”; (Test System: AMES SALMONELLA TYPHIMURIUM, Strain/Indicator: TA98, Metabolic Activation: NONE, Method: PREINCUBATION) “inactive; negative”; (Test System: AMES SALMONELLA TYPHIMURIUM, Strain/Indicator: TA98, Metabolic Activation: RAT, LIVER, S-9, AROCLOR 1254, Method: PREINCUBATION) “inactive; negative”; (Test System: AMES SALMONELLA TYPHIMURIUM, Strain/Indicator: TA100, Metabolic Activation: HAMSTER, LIVER, S-9, AROCLOR 1254, Method: PREINCUBATION) “inactive; negative”. The mutagenic call was “inactive; negative” (Test System: AMES SALMONELLA TYPHIMURIUM, Strain/Indicator: TA100, Metabolic Activation: NONE, Method: PREINCUBATION); “inactive; negative” (Test System: AMES SALMONELLA TYPHIMURIUM, Strain/Indicator: TA100, Metabolic Activation: RAT, LIVER, S-9, AROCLOR 1254, Method: PREINCUBATION); “inactive; negative” (Test System: AMES SALMONELLA TYPHIMURIUM, Strain/Indicator: TA1535, Metabolic Activation: HAMSTER, LIVER, S-9, AROCLOR 1254, Method: PREINCUBATION); “inactive; negative” (Test System: AMES SALMONELLA TYPHIMURIUM, Strain/Indicator: TA1535, Metabolic Activation: NONE, Method: PREINCUBATION); “inactive; negative” (Test System: AMES SALMONELLA TYPHIMURIUM, Strain/Indicator: TA1535, Metabolic Activation: RAT, LIVER, S-9, AROCLOR 1254, Method: PREINCUBATION); “inactive; negative” (Test System: AMES SALMONELLA TYPHIMURIUM, Strain/Indicator: TA1537, Metabolic Activation: HAMSTER, LIVER, S-9, AROCLOR 1254, Method: PREINCUBATION). Besides, the mutagenic call is “inactive; negative” (Test System: AMES SALMONELLA TYPHIMURIUM, Strain/Indicator: TA1537, Metabolic Activation: NONE, Method: PREINCUBATION); “inactive; negative” (Test System: AMES SALMONELLA TYPHIMURIUM, Strain/Indicator: TA1537, Metabolic Activation: RAT, LIVER, S-9, AROCLOR 1254, Method: PREINCUBATION); “inactive; negative” (Test System: MOUSE LYMPHOMA, Strain/Indicator: L5178Y (TK+/TK-), Metabolic Activation: NONE, Method: SUSPENSION/PLATE); “active; positive” (Test System: MOUSE LYMPHOMA, Strain/Indicator: L5178Y (TK+/TK-), Metabolic Activation: RAT, LIVER, S-9, AROCLOR 1254, Method: SUSPENSION/PLATE).

Take `O=[N+]([O-])c1ccc2[nH]c3ccc([N+](=O)[O-])cc3c2c1`: the mutagenic call (Test System: AMES SALMONELLA TYPHIMURIUM, Strain/Indicator: TA98(NR), Metabolic Activation: NONE, Method: STANDARD PLATE) was “active; positive”; the mutagenic call (Test System: AMES SALMONELLA TYPHIMURIUM, Strain/Indicator: TA98(NR), Metabolic Activation: RAT, LIVER, S-9, AROCLOR 1254, Method: STANDARD PLATE) is “active; positive”; the mutagenic call (Test System: AMES SALMONELLA TYPHIMURIUM, Strain/Indicator: TA98, Metabolic Activation: NONE, Method: STANDARD PLATE) is “active; positive”; the mutagenic call (Test System: AMES SALMONELLA TYPHIMURIUM, Strain/Indicator: TA98, Metabolic Activation: RAT, LIVER, S-9, AROCLOR 1254, Method: STANDARD PLATE) is “active; positive”.
